This note sets out measurements from PubChem BioAssay (NCI).

Test systems include A549 NSCLC; DLD-1 colon; DMS 114 small cell lung; DMS 273 small cell lung; KM20L2 colon; LXFL 529 NSCLC; RXF-631 renal; SF-268 CNS; SNB-78 CNS; XF 498 CNS; HOP-18 NSCLC; M19-MEL melanoma.
Holding throughout (assay): growth of human tumour cells (NCI), 48 h

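Exposure lasted 48 hours, with cells grown in 96-well plates and compounds tested at five concentrations. Definition used: TGI = concentration required for complete inhibition of growth.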

With `COC(=O)C(C)NP(=O)(N1CC1)N1CC1` (stereo unspecified), the TGI in the experiment on A549 NSCLC, in the experiment on DLD-1 colon, in the experiment with DMS 114 small cell lung, with DMS 273 small cell lung, in the experiment on KM20L2 colon and in the experiment on LXFL 529 NSCLC was over 100 µM each time. For the same compound, the TGI with RXF-631 renal, with SF-268 CNS, with SNB-78 CNS and in the experiment with XF 498 CNS was over 100 µM each time.
For the compound `COc1cc2c[n+](C)c3c4cc5c(cc4ccc3c2cc1OC)OCO5`, the TGI is 0.756 µM in the experiment with A549 NSCLC; over 31.6 µM in the experiment with DLD-1 colon; 5.92 µM in the experiment on DMS 114 small cell lung; 11.6 µM in the experiment with DMS 273 small cell lung; 93.6 µM with HOP-18 NSCLC; 3.47 µM in the experiment with KM20L2 colon. The TGI with LXFL 529 NSCLC is 4.67 µM; in the experiment on M19-MEL melanoma, 2.9 µM; with RXF-631 renal, over 100 µM; with SF-268 CNS it was 39.4 µM; in the experiment on SNB-78 CNS it was over 25.9 µM; with XF 498 CNS, 9.95 µM.
As for `COC1CC(C)C(OC)C2=CC(=O)C=C(NC(=O)/C(C)=C/C=C\C(C)C(OC(N)=O)/C(C)=C\C(C)C1OC)C2=O` (stereo unspecified), the TGI worked out at 31.4 µM in the experiment with A549 NSCLC; 2.58 µM in the experiment on DLD-1 colon; 17.8 µM in the experiment on DMS 114 small cell lung; 15.7 µM in the experiment with HOP-18 NSCLC; 1.8 µM in the experiment with LXFL 529 NSCLC; 6.62 µM in the experiment on M19-MEL melanoma. In addition, the TGI worked out at 6.98 µM with SF-268 CNS, 13.6 µM in the experiment on SNB-78 CNS and 3.13 µM in the experiment on XF 498 CNS.
With `COc1ccc([N+]2=NC(c3ccc([N+](=O)[O-])cc3)=NN(c3ccccc3)C2)cc1`, the TGI in the experiment on A549 NSCLC, in the experiment on DLD-1 colon, in the experiment with DMS 114 small cell lung, with DMS 273 small cell lung, with KM20L2 colon and in the experiment with LXFL 529 NSCLC was over 100 µM in each case. The TGI with SF-268 CNS, in the experiment on SNB-78 CNS and with XF 498 CNS was over 100 µM each time.
As to `COc1c2nc(CCl)[nH]c(=O)c2c(OC)c2nc(CCl)[nH]c(=O)c12`, the TGI in the experiment with A549 NSCLC, in the experiment with DLD-1 colon, in the experiment on DMS 114 small cell lung, in the experiment on DMS 273 small cell lung, in the experiment with HOP-18 NSCLC and in the experiment with KM20L2 colon was over 100 µM each time. In addition, the TGI in the experiment with LXFL 529 NSCLC, with M19-MEL melanoma, with SF-268 CNS, in the experiment with SNB-78 CNS and with XF 498 CNS was over 100 µM each time.
